Source: patent US20090143279A1 (priority 2007, published 2009)
Read-outs that look alike come from different tables or passages of the source.

Legend:
reactive oxygen species = format: cell-based, mouse; details: for ROS (composite Z-score): normalized score vs mock-treated (DMSO) wells
C2C12 myotubes = details: for Viability (composite Z-score): normalized score vs mock-treated (DMSO) wells
cytochrome c = format: cell-based, mouse; details: for cyt c (composite Z-score): normalized score vs mock-treated (DMSO) wells
OXPHOS gene expression = format: cell-based, mouse; details: for GE-HTS (composite Z-score): normalized score vs mock-treated (DMSO) wells
nuOXPHOS transcripts = format: cell-based, mouse; details: for nucOX (composite Z-score): normalized score vs mock-treated (DMSO) wells
mtOXPHOS transcripts = format: cell-based, mouse; details: for mitoOX (composite Z-score): normalized score vs mock-treated (DMSO) wells
[1] = test system: mitochondrial membrane potential; format: cell-based, mouse; details: for ΔΨm (composite Z-score): normalized score vs mock-treated (DMSO) wells
[2] = test system: cellular dehydrogenase activity; details: for MTT (composite Z-score): normalized score vs mock-treated (DMSO) wells
[3] = composite Z-score vs mock-treated (DMSO) wells, Conc 20 μM
[4] = 20 μM, composite Z-score vs DMSO
[5] = composite Z-score vs DMSO wells, Conc 20 μM
[6] = normalized composite Z-score vs mock-treated (DMSO) wells, Conc 20 μM
[7] = composite Z-score vs DMSO, Conc 20 μM
[8] = composite Z-score vs mock-treated (DMSO) wells, concentration of each compound in μM
[9] = Table 4, C2C12 myotubes, 48 h, composite Z-score

Sequence of cytochrome c (P62897 whole entry): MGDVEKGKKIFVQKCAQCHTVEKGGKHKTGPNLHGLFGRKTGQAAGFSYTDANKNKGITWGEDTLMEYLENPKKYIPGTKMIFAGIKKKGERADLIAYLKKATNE

CCC(C)C(=O)O[C@@H]1C[C@@]2(C)[C@H](c3ccoc3)OC(=O)CC23OC2(C)O[C@]14[C@]1(C)[C@@H](CC(=O)OC)C5(C)CC1(O)[C@](O)(C5OC(=O)C1(C)OC1C)[C@@H](OC(C)=O)[C@]34O2 (stereo partly shown) [utilin]
ROS (reactive oxygen species; [3]): 0.482
Viability (C2C12 myotubes; [3]): 1.131
cyt c (cytochrome c; [3]): −0.038
GE-HTS (OXPHOS gene expression; [3]): −0.939
nucOX (nuOXPHOS transcripts; [3]): −0.861
mitoOX (mtOXPHOS transcripts; [3]): −0.975
ΔΨm [1, 3]: −0.122
MTT [2, 3]: −1.571

COC(=O)/C(=C1/OC(=O)C(c2ccccc2)=C1O)c1ccccc1 [vulpinic acid]
ROS (reactive oxygen species; [4]): 1.407
Viability (C2C12 myotubes; [4]): −1.120
cyt c (cytochrome c; [4]): 1.037
GE-HTS (OXPHOS gene expression; [4]): −0.152
nucOX (nuOXPHOS transcripts; [4]): 0.168
mitoOX (mtOXPHOS transcripts; [4]): −0.792
ΔΨm [1, 4]: −3.484
MTT [2, 4]: 0.403

CC1(C)C=Cc2cc3ccc(=O)oc3cc2O1 [xanthyletin]
ROS (reactive oxygen species; [3]): 0.217
Viability (C2C12 myotubes; [3]): −0.674
cyt c (cytochrome c; [3]): −0.029
GE-HTS (OXPHOS gene expression; [3]): 1.029
nucOX (nuOXPHOS transcripts; [3]): 0.924
mitoOX (mtOXPHOS transcripts; [3]): 1.085
ΔΨm [1, 3]: −0.220
MTT [2, 3]: −1.741

COC(=O)[C@@H]1[C@H]2C[C@H]3c4[nH]c5ccccc5c4CCN3C[C@@H]2CC[C@@H]1O [yohimbine]
ROS (reactive oxygen species): 0.159
Viability (C2C12 myotubes): −0.860
cyt c (cytochrome c): 0.699
GE-HTS (OXPHOS gene expression): −0.041
nucOX (nuOXPHOS transcripts): 0.169
mitoOX (mtOXPHOS transcripts): −0.471
ΔΨm [1]: −1.197
MTT [2]: −1.915

CCCOc1ccccc1-c1nc2nn[nH]c2c(=O)[nH]1 [zaprinast]
ROS (reactive oxygen species; [5]): −0.482
Viability (C2C12 myotubes; [5]): 0.602
cyt c (cytochrome c; [5]): 0.226
GE-HTS (OXPHOS gene expression; [5]): 0.076
nucOX (nuOXPHOS transcripts; [5]): 0.220
mitoOX (mtOXPHOS transcripts; [5]): −0.234
ΔΨm [1, 5]: −0.347
MTT [2, 5]: −1.175

CC(C)(O)[C@H]1CC[C@]2(C)[C@H]3CC[C@@H]4[C@@]5(C)CCCC(C)(C)[C@@H]5[C@@H](O)C[C@@]4(C)[C@]3(C)CC[C@@H]12 [zeorin]
ROS (reactive oxygen species; [6]): 0.166
Viability (C2C12 myotubes; [6]): 0.495
cyt c (cytochrome c; [6]): 0.088
GE-HTS (OXPHOS gene expression; [6]): 0.381
nucOX (nuOXPHOS transcripts; [6]): 0.278
mitoOX (mtOXPHOS transcripts; [6]): 0.571
ΔΨm [1, 6]: −0.941
MTT [2, 6]: −0.387

(−)-asarinin
ROS (reactive oxygen species; [7]): −0.229
Viability (C2C12 myotubes; [7]): −0.632
cyt c (cytochrome c; [7]): 0.607
GE-HTS (OXPHOS gene expression; [7]): −1.167
nucOX (nuOXPHOS transcripts; [7]): −0.726
mitoOX (mtOXPHOS transcripts; [7]): −1.858
ΔΨm [1, 7]: −0.439
MTT [2, 7]: −0.505

avermectin B1
ROS (reactive oxygen species; [7]): 2.442
Viability (C2C12 myotubes; [7]): 0.129
cyt c (cytochrome c; [7]): 0.116
GE-HTS (OXPHOS gene expression; [7]): 0.198
nucOX (nuOXPHOS transcripts; [7]): 0.170
mitoOX (mtOXPHOS transcripts; [7]): 0.295
ΔΨm [1, 7]: −0.336
MTT [2, 7]: −0.284

avocatin A
ROS (reactive oxygen species; [8]): 0.404
Viability (C2C12 myotubes; [8]): 0.133
cyt c (cytochrome c; [8]): 0.849
GE-HTS (OXPHOS gene expression; [8]): −1.145
nucOX (nuOXPHOS transcripts; [8]): −1.066
mitoOX (mtOXPHOS transcripts; [8]): −1.140
ΔΨm [1, 8]: −0.057
MTT [2, 8]: −0.249

avocatin B
ROS (reactive oxygen species; [8]): 1.229
Viability (C2C12 myotubes; [8]): −0.869
cyt c (cytochrome c; [8]): 0.710
GE-HTS (OXPHOS gene expression; [8]): −0.935
nucOX (nuOXPHOS transcripts; [8]): −0.863
mitoOX (mtOXPHOS transcripts; [8]): −0.852
ΔΨm [1, 8]: 0.024
MTT [2, 8]: −1.119

beta-escin
ROS (composite Z-score) (reactive oxygen species; Conc 20 μM): −3.107
Viability (composite Z-score) (C2C12 myotubes; Conc 20 μM): −5.049
cyt c (composite Z-score) (cytochrome c; Conc 20 μM): −5.117
GE-HTS (composite Z-score) (OXPHOS gene expression; Conc 20 μM): −0.914
nucOX (composite Z-score) (nuOXPHOS transcripts; Conc 20 μM): −0.883
mitoOX (composite Z-score) (mtOXPHOS transcripts; Conc 20 μM): −0.745
ΔΨm (composite Z-score) ([1]; Conc 20 μM): −3.416
MTT (composite Z-score) ([2]; Conc 20 μM): −5.088

beta-sitosterol
ROS (reactive oxygen species; [7]): 0.049
Viability (C2C12 myotubes; [7]): −0.768
cyt c (cytochrome c; [7]): 0.061
GE-HTS (OXPHOS gene expression; [7]): 0.098
nucOX (nuOXPHOS transcripts; [7]): 0.046
mitoOX (mtOXPHOS transcripts; [7]): 0.218
ΔΨm [1, 7]: −0.679
MTT [2, 7]: −1.974

caryophyllene
ROS (composite Z-score) (reactive oxygen species; Conc 20 μM): 0.996
Viability (composite Z-score) (C2C12 myotubes; Conc 20 μM): −0.255
cyt c (composite Z-score) (cytochrome c; Conc 20 μM): −0.121
GE-HTS (composite Z-score) (OXPHOS gene expression; Conc 20 μM): 0.119
nucOX (composite Z-score) (nuOXPHOS transcripts; Conc 20 μM): 0.216
mitoOX (composite Z-score) (mtOXPHOS transcripts; Conc 20 μM): −0.100
ΔΨm (composite Z-score) ([1]; Conc 20 μM): 1.045
MTT (composite Z-score) ([2]; Conc 20 μM): −0.525

colistin
ROS (reactive oxygen species; [8]): 0.501
Viability (C2C12 myotubes; [8]): 0.940
cyt c (cytochrome c; [8]): 0.409
GE-HTS (OXPHOS gene expression; [8]): −0.341
nucOX (nuOXPHOS transcripts; [8]): −0.016
mitoOX (mtOXPHOS transcripts; [8]): −0.939
ΔΨm [1, 8]: −0.746
MTT [2, 8]: −1.283

dihydromundulone [reference compound]
ROS (reactive oxygen species; [9]): 0.537
ROS (reactive oxygen species; [6]): 0.537
Viability (C2C12 myotubes; [9]): 0.816
Viability (C2C12 myotubes; [6]): 0.816
cyt c (cytochrome c; [6]): −0.210
GE-HTS (OXPHOS gene expression; [6]): 0.414
nucOX (nuOXPHOS transcripts; [6]): 0.513
mitoOX (mtOXPHOS transcripts; [6]): 0.168
ΔΨm ([1]; Table 4, C2C12 myotubes, 48 h, JC-1, composite Z-score): −0.530
ΔΨm [1, 6]: −0.530
MTT [2, 9]: 0.189
MTT [2, 6]: 0.189
